Our source for the Kd values is US20130261077A1 (priority 2012, published 2013).

Each structure is given as a SMILES string.

Broadly, the Kd is the constant that tells how readily two partners part at equilibrium.

In this assay the target is T1, FimH-CRD (Escherichia coli, UniProt P08191).
T1 construct: The first 177 amino acids of the FimH protein; thrombin tag (printed as 'fusion protein with thrombin') (cleaved yes); made in house; host or cells: bacteria (pET21b plasmid)
T1 sequence (P08191 22-177): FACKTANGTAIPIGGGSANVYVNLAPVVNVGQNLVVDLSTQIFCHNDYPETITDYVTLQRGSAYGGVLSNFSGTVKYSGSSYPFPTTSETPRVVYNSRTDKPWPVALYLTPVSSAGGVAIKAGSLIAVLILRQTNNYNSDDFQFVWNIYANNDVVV
In words: Competitive binding assay by fluorescence polarization, assay 2 (compounds prepared by robotics, plates frozen and thawed). Put shortly:
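Fluorescence-polarization competition of 5 nM Alexa 647 mannoside probe with 60 nM FimH-CRD (first 177 residues, tag removed) in Tris-Cl pH 7.0, NaCl, EDTA, β-ME, BSA, 2.5% DMSO, 5 h at RT in the dark. Twelve-point 3-fold titrations (0.4 nM–75 μM) in duplicate; Kd interpolated from displacement curves.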
(In general: In fluorescence polarisation assays a small probe gives low polarisation when free and higher when bound to something large.)
Turning to `CNC(=O)c1cc(/C=C/Cc2cccc([C@H]3O[C@H](CO)[C@@H](O)[C@H](O)[C@@H]3O)c2)cc(C(=O)NC)c1` [Compound 94, N1,N3-Dimethyl-5-[(E)-3-[3-[(2R,3S,4R,5S,6R)-3,4,5-trihydroxy-6-(hydroxymethyl)tetrahydropyran-2-yl]phenyl]prop-1-enyl]benzene-1,3-dicarboxamide], the Kd stood at 94.4 ± 13 nM. Next, `O=C(O)c1cc(C(=O)O)cc(-c2cccc([C@H]3O[C@H](CO)[C@@H](O)[C@H](O)[C@@H]3O)c2)c1` [Compound 153, 5-[3-[(2R,3S,4R,5S,6R)-3,4,5-trihydroxy-6-(hydroxymethyl)tetrahydropyran-2-yl]phenyl]benzene-1,3-dicarboxylic acid]: 88.7 ± 41.2 nM; `CNC(=O)c1cccc(Oc2cc([C@H]3O[C@H](CO)[C@@H](O)[C@H](O)[C@@H]3O)ccc2OC)c1` [Compound 188, 3-[2-methoxy-5-[(2R,3S,4R,5S,6R)-3,4,5-trihydroxy-6-(hydroxymethyl)tetrahydropyran-2-yl]phenoxy]-N-methyl-benzamide]: 11.1 ± 1.1 nM.

Compound `Cc1c(-c2ccc(S(C)(=O)=O)cc2)cccc1[C@H]1O[C@H](CO)[C@@H](O)[C@H](O)[C@@H]1O` [Compound 109, (2R,3S,4R,5S,6R)-2-(Hydroxymethyl)-6-[2-methyl-3-(4-methylsulfonylphenyl)phenyl]tetrahydropyran-3,4,5-triol] displayed a Kd of 14.4 ± 6.2 nM.

Compound `CCC(C)COc1cccc(C2O[C@H](CO)[C@@H](O)[C@H](O)[C@@H]2O)c1` (stereo partly drawn) [Compound 207] showed a Kd of 9.4 ± 4.3 nM. The same measure for `CNC(=O)c1cc(CCCc2cccc([C@H]3O[C@H](CO)[C@@H](O)[C@H](O)[C@@H]3O)c2)cc(C(=O)NC)c1` [Compound 97, N1,N3-Dimethyl-5-[3-[3-[(2R,3S,4R,5S,6R)-3,4,5-trihydroxy-6-(hydroxymethyl)tetrahydropyran-2-yl]phenyl]propyl]benzene-1,3-dicarboxamide]: 31.6 ± 17.5 nM. Next, `COc1ccccc1NC(=O)COc1ccc(C2O[C@H](CO)[C@@H](O)[C@H](O)[C@@H]2O)cc1` (stereo partly drawn) [Compound 242]: 21.5 ± 3.9 nM; `OC[C@H]1OC(c2cccc(OCc3ccc(-n4cncn4)cc3)c2)[C@@H](O)[C@@H](O)[C@@H]1O` (stereo partly drawn) [Compound 213]: 9.3 ± 0.5 nM; `OC[C@H]1O[C@H](c2cccc(COc3cc(Cl)cc(Cl)c3)c2)[C@@H](O)[C@@H](O)[C@@H]1O` [Compound 263, (2R,3S,4R,5S,6R)-2-[3-[(3,5-dichlorophenoxy)methyl]phenyl]-6-(hydroxymethyl)tetrahydropyran-3,4,5-triol]: 22.3 ± 5 nM. For `CNC(=O)c1cccc(C#Cc2cc([C@H]3O[C@H](CO)[C@@H](O)[C@H](O)[C@@H]3O)ccc2OC)c1` [Compound 83, 3-[2-[2-Methoxy-5-[(2R,3S,4R,5S,6R)-3,4,5-trihydroxy-6-(hydroxymethyl)tetrahydropyran-2-yl]phenyl]ethynyl]-N-methyl-benzamide], the Kd was found to be 32.2 ± 5.8 nM. The same measure for `OC[C@H]1O[C@H](c2cccc(-c3nc4ccccc4[nH]3)c2)[C@@H](O)[C@@H](O)[C@@H]1O` [Compound 163]: 82.1 ± 0.6 nM; for `O=C(c1ccccc1)c1ccc2[nH]c(-c3cccc([C@H]4O[C@H](CO)[C@@H](O)[C@H](O)[C@@H]4O)c3)nc2c1` [Compound 168]: 42.5 ± 18.3 nM; for `O=C(COc1cccc(C2O[C@H](CO)[C@@H](O)[C@H](O)[C@@H]2O)c1)C1CCCCC1` (stereo partly drawn) [Compound 218]: 8.7 ± 1.4 nM. The same measure for `COC(=O)c1ccc(Oc2cc([C@H]3O[C@H](CO)[C@@H](O)[C@H](O)[C@@H]3O)ccc2OC)cc1` [Compound 189, Methyl-4-[2-methoxy-5-[(2R,3S,4R,5S,6R)-3,4,5-trihydroxy-6-(hydroxymethyl)tetrahydropyran-2-yl]phenoxy]benzoate]: 8.1 ± 2.7 nM.

Take `CC(=O)c1ccc(-c2cccc([C@H]3O[C@H](CO)[C@@H](O)[C@H](O)[C@@H]3O)c2)cc1` [Compound 184, 1-(3′-((2R,3S,4R,5S,6R)-3,4,5-trihydroxy-6-(hydroxymethyl)tetrahydro-2H-pyran-2-yl)-[1,1′-biphenyl]-4-yl)ethanone]: the Kd stood at 18.2 ± 8.4 nM. In turn, `OC[C@H]1O[C@H](c2cc(O)ccc2OC(F)(F)F)[C@@H](O)[C@@H](O)[C@@H]1O` [Compound 191, (2R,3S,4R,5S,6R)-2-(hydroxymethyl)-6-[5-hydroxy-2-(trifluoromethoxy)phenyl]tetrahydropyran-3,4,5-triol] had a dissociation constant Kd of 37.4 ± 17.2 nM. The same measure for `CNC(=O)c1cccc(Oc2ccc(F)c([C@H]3O[C@H](CO)[C@@H](O)[C@H](O)[C@@H]3O)c2)c1` [Compound 202, 3-[4-fluoro-3-[(2R,3S,4R,5S,6R)-3,4,5-trihydroxy-6-(hydroxymethyl)tetrahydropyran-2-yl]phenoxy]-N-methyl-benzamide]: 19.2 ± 3.8 nM; for `OC[C@H]1O[C@H](c2ccc3cc(O)ccc3c2)[C@@H](O)[C@@H](O)[C@@H]1O` [Compound 156, (2R,3S,4R,5S,6R)-2-(hydroxymethyl)-6-(6-hydroxy-2-naphthyl)tetrahydropyran-3,4,5-triol]: 16.5 ± 4.3 nM; for `CNC(=O)c1cccc(Oc2cc([C@H]3O[C@H](CO)[C@@H](O)[C@H](O)[C@@H]3O)ccc2F)c1` [Compound 203, 3-[2-fluoro-5-[(2R,3S,4R,5S,6R)-3,4,5-trihydroxy-6-(hydroxymethyl)tetrahydropyran-2-yl]phenoxy]-N-methyl-benzamide]: 9.2 ± 1.2 nM.

For `CNC(=O)c1cccc(Oc2cc(C)cc([C@H]3O[C@H](CO)[C@@H](O)[C@H](O)[C@@H]3O)c2)c1` [Compound 204, N-methyl-3-[3-methyl-5-[(2R,3S,4R,5S,6R)-3,4,5-trihydroxy-6-(hydroxymethyl)tetrahydropyran-2-yl]phenoxy]benzamide], the affinity, expressed as Kd, was 10.6 ± 0.9 nM. Next, `OC[C@H]1OC(c2cccc(OCc3cc(Cl)cc(Cl)c3)c2)[C@@H](O)[C@@H](O)[C@@H]1O` (stereo partly drawn) [Compound 226]: 32.1 ± 8.9 nM; `OC[C@H]1O[C@H](c2cccc(-c3nc4cc(F)ccc4[nH]3)c2)[C@@H](O)[C@@H](O)[C@@H]1O` [Compound 166]: 44.1 ± 19.9 nM. Next, `OC[C@H]1O[C@H](c2cccc(-c3ccc(-c4nnco4)cc3)c2)[C@@H](O)[C@@H](O)[C@@H]1O` [Compound 178]: 17.9 ± 3.7 nM; `OC[C@H]1OC(c2cccc(Oc3ccnc4ccccc34)c2)[C@@H](O)[C@@H](O)[C@@H]1O` (stereo partly drawn) [Compound 254]: 7.9 nM; `CC[C@H](C)COc1ccc(C2O[C@H](CO)[C@@H](O)[C@H](O)[C@@H]2O)cc1` (stereo partly drawn) [Compound 231]: 8.9 ± 1.4 nM. `Cc1nnc(-c2ccc(-c3cccc([C@H]4O[C@H](CO)[C@@H](O)[C@H](O)[C@@H]4O)c3)cc2)s1` [Compound 176] displayed a dissociation constant (Kd) of 21.1 ± 2.6 nM. Next, `OC[C@H]1O[C@H](c2cccc(C/C=C/c3cc(Cl)cc(Cl)c3)c2)[C@@H](O)[C@@H](O)[C@@H]1O` [Compound 95, (2R,3S,4R,5S,6R)-2-[3-[(E)-3-(3,5-Dichlorophenyl)allyl]phenyl]-6-(hydroxymethyl)tetrahydropyran-3,4,5-triol]: 34 ± 7.8 nM; `CNC(=O)c1cccc(-c2ccc(-c3cccc([C@H]4O[C@H](CO)[C@@H](O)[C@H](O)[C@@H]4O)c3)c(C)c2)c1` [Compound 159, N,3′-dimethyl-3″-((2R,3S,4R,5S,6R)-3,4,5-trihydroxy-6-(hydroxymethyl)tetrahydro-2H-pyran-2-yl)-[1,1′:4′,1″-terphenyl]-3-carboxamide]: 15.6 ± 3.4 nM. The same measure for `COC(=O)c1ccc(C#Cc2cccc([C@H]3O[C@H](CO)[C@@H](O)[C@H](O)[C@@H]3O)c2)cc1` [Compound 87, Methyl 4-[2-[3-[(2R,3S,4R,5S,6R)-3,4,5-trihydroxy-6-(hydroxymethyl)tetrahydropyran-2-yl]phenyl]ethynyl]benzoate]: 6.8 ± 0.2 nM; for `CNC(=O)c1cc(C#Cc2cc([C@H]3O[C@H](CO)[C@@H](O)[C@H](O)[C@@H]3O)ccc2OC)cc(C(=O)NC)c1` [Compound 84, 5-[2-[2-Methoxy-5-[(2R,3S,4R,5S,6R)-3,4,5-trihydroxy-6-(hydroxymethyl)tetrahydropyran-2-yl]phenyl]ethynyl]-N1,N3-dimethyl-benzene-1,3-dicarboxamide]: 27.5 ± 3.9 nM; for `OC[C@H]1O[C@H](c2cccc(OCCF)c2)[C@@H](O)[C@@H](O)[C@@H]1O` [Compound 206, (2R,3S,4R,5S,6R)-2-[3-(2-fluoroethoxy)phenyl]-6-(hydroxymethyl)tetrahydropyran-3,4,5-triol]: 28.4 ± 6.2 nM. For the compound `OC[C@H]1OC(c2cccc(OCc3ccccc3)c2)[C@@H](O)[C@@H](O)[C@@H]1O` (stereo partly drawn) [Compound 222], binding was put at a Kd of 40.7 ± 1.2 nM.

For the compound `CC1(COc2cccc(C3O[C@H](CO)[C@@H](O)[C@H](O)[C@@H]3O)c2)COC1` (stereo partly drawn) [Compound 214], the Kd turned out to be 12 ± 7.9 nM.

For the compound `Cc1nnc(-c2ccc(-c3cccc([C@H]4O[C@H](CO)[C@@H](O)[C@H](O)[C@@H]4O)c3F)cc2)o1` [Compound 106, (2R,3S,4R,5S,6R)-2-[2-Fluoro-3-[4-(5-methyl-1,3,4-oxadiazol-2-yl)phenyl]phenyl]-6-(hydroxymethyl)tetrahydropyran-3,4,5-triol], binding was put at a Kd of 23.4 ± 7.5 nM.

Consider `CNC(=O)c1cccc(Oc2cccc([C@H]3O[C@H](CO)[C@@H](O)[C@H](O)[C@@H]3O)c2F)c1` [Compound 200, 3-[2-fluoro-3-[(2R,3S,4R,5S,6R)-3,4,5-trihydroxy-6-(hydroxymethyl)tetrahydropyran-2-yl]phenoxy]-N-methyl-benzamide], for which binding was characterised by a dissociation constant (Kd) of 8.4 ± 0.8 nM. The same measure for `Cc1nnc(-c2ccc(-c3cccc([C@H]4O[C@H](CO)[C@@H](O)[C@H](O)[C@@H]4O)c3C)cc2)o1` [Compound 104, (2R,3S,4R,5S,6R)-2-(Hydroxymethyl)-6-[2-methyl-3-[4-(5-methyl-1,3,4-oxadiazol-2-yl)phenyl]phenyl]tetrahydropyran-3,4,5-triol]: 8.5 ± 3.1 nM.
